# In ChEMBL document CHEMBL3352582, “Protective effects of aloe-emodin on scopolamine-induced memory impairment in mice and H₂O₂-induced cytotoxicity in PC12 cells” (Bioorg Med Chem Lett, 2014):
# Calls of active or inactive are those of the source. The calls are words filed in the database; no cut-off is given here.
# Legend:
# Mus musculus [1] = experiment: Neuroprotective effect in Kunming mouse assessed as reduction in scopolamine-induced escape latency at 0.1 mg/kg, po qd administered for 15 days followed by 1 hr prior to trial session for 6 days by Morris water maze test; assay type: functional, organism-based; set-up: dose 0.1 mg/kg
# Mus musculus [2] = experiment: Neuroprotective effect in Kunming mouse assessed as increase in scopolamine-induced reduction in time spent in target quadrant at 0.1 mg/kg, po qd administered for 15 days followed by 1 hr prior to trial session for 6 days measured at day 5 by Morris water maze test relative to sham control; assay type: functional, organism-based; set-up: dose 0.1 mg/kg
# Mus musculus [3] = experiment: Neuroprotective effect in Kunming mouse assessed as increase in scopolamine-induced reduction in time spent in platform crossing at 0.1 mg/kg, po qd administered for 15 days followed by 1 hr prior to trial session for 6 days measured at day 5 by Morris water maze test relative to sham control; assay type: functional, organism-based; set-up: dose 0.1 mg/kg
# Mus musculus [4] = experiment: Neuroprotective effect in Kunming mouse assessed as increase in scopolamine-induced reduction in SOD level in hippocampus at 0.1 mg/kg, po qd administered for 15 days followed by 1 hr prior to trial session for 6 days relative to control; assay type: functional, organism-based; set-up: dose 0.1 mg/kg
# Mus musculus [5] = experiment: Neuroprotective effect in Kunming mouse assessed as increase in scopolamine-induced reduction in GPx level in hippocampus at 0.1 mg/kg, po qd administered for 15 days followed by 1 hr prior to trial session for 6 days relative to control; assay type: functional, organism-based; set-up: dose 0.1 mg/kg
# Mus musculus [6] = experiment: Neuroprotective effect in Kunming mouse assessed as reduction in scopolamine-induced increase in MDA level in hippocampus at 0.1 mg/kg, po qd administered for 15 days followed by 1 hr prior to trial session for 6 days relative to control; assay type: functional, organism-based; set-up: dose 0.1 mg/kg
# Mus musculus [7] = experiment: Neuroprotective effect in Kunming mouse assessed as reversal of scopolamine-induced increase in AChE activity in hippocampus at 0.1 mg/kg, po qd administered for 15 days followed by 1 hr prior to trial session for 6 days; assay type: functional, organism-based; set-up: dose 0.1 mg/kg
# Mus musculus [8] = experiment: Neuroprotective effect in Kunming mouse assessed as reversal of scopolamine-induced reduction in ACh level in hippocampus at 0.1 mg/kg, po qd administered for 15 days followed by 1 hr prior to trial session for 6 days; assay type: functional, organism-based; set-up: dose 0.1 mg/kg
# Mus musculus [9] = experiment: Neuroprotective effect in Kunming mouse assessed as reduction in scopolamine-induced escape latency at 100 mg/kg, po qd administered for 15 days followed by 1 hr prior to trial session for 6 days by Morris water maze test; assay type: functional, organism-based; set-up: dose 100 mg/kg
# Mus musculus [10] = experiment: Neuroprotective effect in Kunming mouse assessed as reversal of scopolamine-induced effect on spatial memory performance at 100 mg/kg, po qd administered for 15 days followed by 1 hr prior to trial session for 6 days by Morris water maze test relative to sham control; assay type: functional, organism-based; set-up: dose 100 mg/kg
# Mus musculus [11] = experiment: Neuroprotective effect in Kunming mouse assessed as reduction in scopolamine-induced impairment in spatial learning and memory at 25 to 100 mg/kg, po qd administered for 15 days followed by 1 hr prior to trial session for 6 days measured at day 5 by Morris water maze test relative to sham control; assay type: functional, organism-based
# Mus musculus [12] = experiment: Neuroprotective effect in Kunming mouse assessed as increase in scopolamine-induced reduction in time spent in target quadrant at 50 to 100 mg/kg, po qd administered for 15 days followed by 1 hr prior to trial session for 6 days measured at day 5 by Morris water maze test relative to sham control; assay type: functional, organism-based
# Mus musculus [13] = experiment: Neuroprotective effect in Kunming mouse assessed as increase in scopolamine-induced reduction in time spent in platform crossing at 50 to 100 mg/kg, po qd administered for 15 days followed by 1 hr prior to trial session for 6 days measured at day 5 by Morris water maze test relative to sham control; assay type: functional, organism-based
# Mus musculus [14] = experiment: Neuroprotective effect in Kunming mouse assessed as increase in scopolamine-induced reduction in swim speed at 25 to 100 mg/kg, po qd administered for 15 days followed by 1 hr prior to trial session for 6 days measured at day 5 by Morris water maze test relative to sham control; assay type: functional, organism-based
# Mus musculus [15] = experiment: Neuroprotective effect in Kunming mouse assessed as increase in scopolamine-induced reduction in SOD level in hippocampus at 25 to 100 mg/kg, po qd administered for 15 days followed by 1 hr prior to trial session for 6 days relative to control; assay type: functional, organism-based
# Mus musculus [16] = experiment: Neuroprotective effect in Kunming mouse assessed as increase in scopolamine-induced reduction in GPx level in hippocampus at 25 to 100 mg/kg, po qd administered for 15 days followed by 1 hr prior to trial session for 6 days relative to control; assay type: functional, organism-based
# Mus musculus [17] = experiment: Neuroprotective effect in Kunming mouse assessed as reduction in scopolamine-induced increase in MDA level in hippocampus at 25 to 100 mg/kg, po qd administered for 15 days followed by 1 hr prior to trial session for 6 days relative to control; assay type: functional, organism-based
# Mus musculus [18] = experiment: Neuroprotective effect in Kunming mouse assessed as reversal of scopolamine-induced increase in AChE activity in hippocampus at 25 to 100 mg/kg, po qd administered for 15 days followed by 1 hr prior to trial session for 6 days; assay type: functional, organism-based
# Mus musculus [19] = experiment: Neuroprotective effect in Kunming mouse assessed as reversal of scopolamine-induced reduction in ACh level in hippocampus at 25 to 100 mg/kg, po qd administered for 15 days followed by 1 hr prior to trial session for 6 days; assay type: functional, organism-based
# Mus musculus [20] = experiment: Neuroprotective effect in Kunming mouse assessed as reversal of scopolamine-induced increase in AChE activity in hippocampus at 100 mg/kg, po qd administered for 15 days followed by 1 hr prior to trial session for 6 days relative to sham control; assay type: functional, organism-based; set-up: dose 100 mg/kg
# Acetylcholinesterase [21] = target: T1, Acetylcholinesterase (Homo sapiens, UniProt P22303); experiment: Inhibition of AChE (unknown origin) by Ellman's method
# [22] = Cytotoxicity against rat PC12 cells at 1 to 20 ug/ml by MTT assay; assay type: cell-based; conditions: pc-12
# [23] = Cytoprotective effect against H2O2-induced cell death in rat PC12 cells at 5 ug/ml incubated for 24 hrs prior to H2O2 challenge measured after 2 hrs by MTT assay; assay type: functional, PC-12
# [24] = Cytoprotective effect against H2O2-induced cell death in rat PC12 cells at 10 ug/ml incubated for 24 hrs prior to H2O2 challenge measured after 2 hrs by MTT assay; assay type: functional, PC-12
# [25] = Cytoprotective effect against H2O2-induced cell death in rat PC12 cells at 20 ug/ml incubated for 24 hrs prior to H2O2 challenge measured after 2 hrs by MTT assay; assay type: functional, PC-12
# PC-12 [26] = experiment: Inhibition of H2O2-induced NO production in rat PC12 cells incubated for 24 hrs prior to H2O2 challenge measured after 2 hrs relative to control; assay type: functional, cell-based
# PC-12 [27] = experiment: Inhibition of H2O2-induced NO production in rat PC12 cells at 5 ug/ml incubated for 24 hrs prior to H2O2 challenge measured after 2 hrs relative to control; assay type: functional
# PC-12 [28] = experiment: Inhibition of H2O2-induced NO production in rat PC12 cells at 10 ug/ml incubated for 24 hrs prior to H2O2 challenge measured after 2 hrs relative to control; assay type: functional
# PC-12 [29] = experiment: Inhibition of H2O2-induced NO production in rat PC12 cells at 20 ug/ml incubated for 24 hrs prior to H2O2 challenge measured after 2 hrs relative to control; assay type: functional
# PC-12 [30] = experiment: Inhibition of H2O2-induced LDH release in rat PC12 cells at 5 to 20 ug/ml incubated for 24 hrs prior to H2O2 challenge measured after 2 hrs relative to control; assay type: functional, cell-based
# PC-12 [31] = experiment: Inhibition of intracellular ROS generation in rat PC12 cells at 5 ug/ml incubated for 24 hrs prior to H2O2 challenge measured after 2 hrs by fluorescence assay relative to control; assay type: functional; conditions: values are per cent of control
# PC-12 [32] = experiment: Inhibition of intracellular ROS generation in rat PC12 cells at 10 ug/ml incubated for 24 hrs prior to H2O2 challenge measured after 2 hrs by fluorescence assay relative to control; assay type: functional; conditions: values are per cent of control
# PC-12 [33] = experiment: Inhibition of intracellular ROS generation in rat PC12 cells at 20 ug/ml incubated for 24 hrs prior to H2O2 challenge measured after 2 hrs by fluorescence assay relative to control; assay type: functional; conditions: values are per cent of control
# Mus musculus [34] = experiment: Neuroprotective effect in po dosed Kunming mouse assessed as reduction in scopolamine-induced escape latency administered qd for 15 days followed by 1 hr prior to trial session for 6 days by Morris water maze test; assay type: functional, organism-based
# Mus musculus [35] = experiment: Neuroprotective effect in po dosed Kunming mouse assessed as increase in scopolamine-induced reduction in time spent in target quadrant administered qd for 15 days followed by 1 hr prior to trial session for 6 days by Morris water maze test; assay type: functional, organism-based
# Mus musculus [36] = experiment: Neuroprotective effect in po dosed Kunming mouse assessed as increase in scopolamine-induced reduction in time spent in platform crossing administered qd for 15 days followed by 1 hr prior to trial session for 6 days by Morris water maze test; assay type: functional, organism-based
# Acetylcholinesterase [37] = target: T1, Acetylcholinesterase; conditions: 40 ug/ml
# Description: Inhibition of AChE (unknown origin) at 40 ug/ml by Ellman's method
# PC-12 [38] = experiment: Cytoprotective effect against H2O2-induced cell death in rat PC12 cells at 20 uM incubated for 24 hrs prior to H2O2 challenge measured after 2 hrs by MTT assay; assay type: functional, cell-based
# PC-12 [39] = experiment: Inhibition of H2O2-induced NO production in rat PC12 cells at 20 uM incubated for 24 hrs prior to H2O2 challenge measured after 2 hrs relative to control; assay type: functional, cell-based
# PC-12 [40] = experiment: Inhibition of H2O2-induced LDH release in rat PC12 cells at 20 uM incubated for 24 hrs prior to H2O2 challenge measured after 2 hrs relative to control; assay type: functional, cell-based
# T1 sequence (P22303 whole entry): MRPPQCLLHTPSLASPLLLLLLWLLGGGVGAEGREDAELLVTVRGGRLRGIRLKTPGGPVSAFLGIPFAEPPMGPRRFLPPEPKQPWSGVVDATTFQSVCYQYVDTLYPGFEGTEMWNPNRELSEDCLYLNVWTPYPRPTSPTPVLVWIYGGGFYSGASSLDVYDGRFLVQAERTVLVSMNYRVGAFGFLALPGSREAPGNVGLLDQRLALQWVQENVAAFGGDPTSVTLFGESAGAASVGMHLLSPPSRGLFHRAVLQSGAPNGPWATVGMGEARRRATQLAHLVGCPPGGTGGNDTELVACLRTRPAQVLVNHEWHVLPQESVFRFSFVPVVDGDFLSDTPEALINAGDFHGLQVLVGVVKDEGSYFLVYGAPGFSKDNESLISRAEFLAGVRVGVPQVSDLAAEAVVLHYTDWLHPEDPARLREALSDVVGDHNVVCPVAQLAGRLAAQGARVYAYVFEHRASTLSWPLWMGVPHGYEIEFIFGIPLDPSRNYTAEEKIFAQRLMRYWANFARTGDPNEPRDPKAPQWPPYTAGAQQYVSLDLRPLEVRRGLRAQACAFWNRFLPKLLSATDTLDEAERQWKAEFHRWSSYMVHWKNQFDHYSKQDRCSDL
compound,measurement,setting,value
C/C=C1\[C@H]2C=C(C)C[C@]1(N)c1ccc(=O)[nH]c1C2,Activity,Mus musculus [1],Active
same,Activity,Mus musculus [2],Active
same,Activity,Mus musculus [3],Active
same,Activity,Mus musculus [4],Active
same,Activity,Mus musculus [5],Active
same,Activity,Mus musculus [6],Active
same,Activity,Mus musculus [7],Active
same,Activity,Mus musculus [8],Active
O=C1c2cccc(O)c2C(=O)c2c(O)cc(CO)cc21 [ALOE-EMODIN],Activity,Mus musculus [9],Active
same,Activity,Mus musculus [10],Active
same,Activity,Mus musculus [11],Active
same,Activity,Mus musculus [12],Active
same,Activity,Mus musculus [13],Active
same,Activity,Mus musculus [14],Active
same,Activity,Mus musculus [15],Active
same,Activity,Mus musculus [16],Active
same,Activity,Mus musculus [17],Active
same,Activity,Mus musculus [18],Active
same,Activity,Mus musculus [19],Active
same,Activity,Mus musculus [20],inactive
same,IC50,Acetylcholinesterase [21],68 µM
same,Activity,[22],Non-toxic
same,Activity,[23],72.9%
same,Activity,[24],81%
same,Activity,[25],88.7%
same,inhibition,PC-12 [26],Dose-dependent effect
same,inhibition at 5 µg/mL,PC-12 [27],27.8%
same,inhibition at 10 µg/mL,PC-12 [28],46.4%
same,inhibition at 20 µg/mL,PC-12 [29],64.3%
same,inhibition,PC-12 [30],Active
same,"response, % of control at 5 µg/mL",PC-12 [31],195%
same,"response, % of control at 10 µg/mL",PC-12 [32],165%
same,"response, % of control at 20 µg/mL",PC-12 [33],149%
same,Activity,Mus musculus [34],Dose-dependent effect
same,Activity,Mus musculus [35],Dose-dependent effect
same,Activity,Mus musculus [36],Dose-dependent effect
same,inhibition,Acetylcholinesterase [37],70%
VITAMIN E,Activity,PC-12 [38],Active
same,inhibition,PC-12 [39],76.2%
same,inhibition,PC-12 [40],Active
